Series [1] can be described thus: Administration of CTG06-06 and methocarbamol to rats, LC-MS/MS of urine for parent drug and conjugates. In kind it is in vivo. Particulars: rat urine. An excerpt:
Differentiation in drug conjugation reactions. […] […] Conjugation is a phase II metabolism reaction in which an acid, for example, glucuronic acid, acts as a conjugating agent to link to a phase I metabolite covalently. The conjugate so formed would be excreted to urine. To most drugs, this is a necessary detoxicating process. As for methocarbamol, this could be a disadvantage because the acid directly forms a conjugate with the drug itself, not its metabolite, and thus, to reduce drug plasma concentration level immediately after administration. This is due to the presence of an OH group in the chemical structure of methocarbamol, which readily allows it to form conjugates with an acid. To inhibit this pathway, CTG06-06 was designed with the OH group replaced by a fluorine (F). This modification is anticipated to slow the drug elimination rate while maintaining a consistently high drug plasma concentration.
Example 3: Co-Administration of CTG06-06 and Methocarbamol (1:1) to Rats and LC-MS/MS Analysis of Rat Urine Samples
Rat urine samples were collected after an oral dose of CTG06-06 and methocarbamol at 1:1 ratio (0.5 mg/kg each).

A short description of series [2]: Co-administration of methocarbamol and CTG06-05 in rats, plasma time-concentration curves. In kind it is in vivo, rat. An excerpt: Differentiation in drug toxicity profiles. Methocarbamol and CTG06-05 were co-administered in rats and plasma samples were collected at various timepoints. […] This indicates a distinct toxicity profile for CTG06-05 compared to methocarbamol, particularly when the toxicity is driven by Cmax. Cmax is the maximum (or peak) plasma concentration that a drug achieves in a specified compartment or test area of the body after the drug has been administered.
Differentiation in drug distribution volumes. Concentration ratios of CTG06-05 to methocarbamol in rat plasma samples from the aforementioned experiment were determined. […] Drug distribution volume (Vd) is defined as the total amount of drug in the body divided by its concentration in plasma. Vd reflects the degree to which the drug is present in extravascular tissues rather than in the plasma. Therefore, when the total amount of drug is the same, for example, 1:1 co-administration, drug plasma concentration is a direct parameter in Vd comparison. In other words, the higher the concentration, the lower the Vd.

Series [3] can be described thus: IV co-administration of CTG06-05 and methocarbamol (1:1) to mice, plasma concentrations by LC-MS/MS. In kind it is in vivo. The settings on record: mouse plasma, 1/1 co-administration, IV 0.5 mg/kg each, FIG. 2. The procedure:
Example 2: Co-Administration of CTG06-05 and Methocarbamol (1:1) to Mice and LC-MS/MS Analysis of Mouse Plasma Samples
Mouse plasma samples were collected at intervals of 2, 7, 10, 15, 30, 45, and 60 minutes after an IV dose of CTG06-05 and methocarbamol at a 1:1 ratio (0.5 mg/kg each). Plasma samples were extracted via protein precipitation. The supernatant at each time point was transferred to a clean vial and analyzed by LC-MS/MS as described in Example 1.

Series [4] is described as follows: Co-incubation of methocarbamol and CTG06-05 in rat liver microsomes (1/1). The settings on record: co-incubated 1/1, FIG. 1. In kind it is in vitro ADME. The source says:
Differentiation in drug elimination half-lives. […] The elimination half-life (T1/2) is the time it takes for the elimination processes to reduce the concentration level or the amount of drug in the system by 50%. Elimination half-life is a composite pharmacokinetic parameter determined by both clearance and volume of distribution (Vd). Elimination half-life is increased by an increase in volume of distribution or a decrease in clearance, and vice versa.
Preparation of Reaction Mixture: The microsome reaction mixtures were prepared as follows: for a total volume of 285 μL of reaction mixture, 274.5 μL of 1×PBS, 3 μL of the test compound, and 7.5 μL of 5 mg/mL microsomes were added. As a negative control, microsome-free samples were prepared by substituting the microsome solution in the reaction mixture with an equal volume of 1×Phosphate Buffer Solution (pH 7.4). The reaction mixture was prepared in triplicates. In addition, dextromethorphan was used in this assay as a positive control.
Incubation and Processing of Reaction: The reaction mixture was initiated by adding 10 μL of NADPH and incubated in a water bath at 37° C. […]
LC-MS/MS analysis: Reversed-phase liquid chromatographic separation was carried out using ACE 3 C18 column (50×2.1 mm id, 3 μm). […] Compounds were monitored in positive mode over a five-minute acquisition period using a triple quadrupole mass spectrometer. […]
For orientation: Microsomes from liver hold many membrane-bound enzymes, among them those of drug oxidation.

Series [5] concerns skeletal muscle contractility or motor nerve fiber. Particulars: cited from earlier work.
A further series relates to liver. The settings on record: in vivo; cited from earlier work.
For series [6] the following is noted: oral; cited from earlier work.

For the molecule `COc1ccccc1OCC(F)COC(N)=O` (stereo not drawn) [CTG06-06], the drug conjugation reaction result in series [1] (separate administration (FIG. 4 legend)) is “eliminates the drug conjugation reaction in rats”.

`[2H]c1c([2H])c([2H])c(OC([2H])([2H])[2H])c(OCC(O)COC(N)=O)c1[2H]` (stereo not drawn) [CTG06-05]: the “drug distribution volume (Vd) compared to methocarbamol” value in series [2] (inferred from plasma concentrations after 1:1 co-administration) is given as “lower Vd value than methocarbamol”. For the same molecule, the “initial concentration in plasma compared to methocarbamol” value in series [2] (rat plasma, co-administered, FIG. 2) is “lower than that of methocarbamol”. Besides, the “concentration ratio of CTG06-05 to methocarbamol in plasma” value in series [2] (rat plasma, co-administered, FIG. 3) was “increased with time”. In series [2] (rat plasma, co-administered, later timepoints, FIG. 2), the “later concentration in plasma compared to methocarbamol” value is listed as “eventually exceeded that of methocarbamol”. Moreover, in series [3], the “C0 compared to methocarbamol” value is on record as “lower C0” and the “T1/2 compared to methocarbamol” value is on record as “longer T1/2”. Also, the “drug elimination half-life compared to methocarbamol” value in series [4] was “longer drug elimination half-life compared to methocarbamol”.

Consider `COc1ccccc1OCC(O)COC(N)=O` (stereo not drawn) [methocarbamol], for which, in series [5], the “direct effect on skeletal muscle contractility or motor nerve fiber” value is given as “no direct effect”. In addition, the “conjugates of the drug in urine” value in series [1] (co-administered, oral 0.5 mg/kg each, LC-MS/MS, FIG. 4) was “methocarbamol and its conjugates were detected”. Also, in the series on liver, the liver toxicity result is listed as “No liver toxicity is observed”. Besides, the “time to peak plasma concentration” value in series [6] is “two”.

Source of the values: patent publication US20250100961A1, “CHEMICAL ENTITIES FOR TREATING ACUTE MUSCULOSKELETAL PAIN, NON-SPECIFIC LOW-BACK PAIN, INFLAMMATORY ARTHRITIS RELATED DISEASES AND CONDITIONS, AND COMPOSITIONS AND METHODS THEREOF” (X-Cutag Therapeutics (Suzhou) Limited, priority 2023, published 2025).
